Test results reported in patent US11279712B2, “Macrocyclic compounds that inhibit MCL-1 protein” (AMGEN INC., priority 2017, dated 2022).
Where two headings read alike, the source gives them in different places.

What was measured:
[1] = system: OPM-2 human multiple myeloma cell line; experiment: Cell Viability Assay (OPM-2 10 FBS); type: cell-based; conditions: OPM-2 cells, CellTiter-Glo, read-out: OPM-2 10% FBS IC50 IP
Procedure: Cell Viability Assay (OPM-2 10 FBS)
The human multiple myeloma cell line, OPM-2, was cultured in complete growth medium containing RPMI 1640 and 10% fetal bovine serum (FBS). Cells were seeded into 384-well plates at 3000 cells/well density in complete growth medium containing 10% FBS, and incubated for 16 h with serially diluted test compounds in a 37° C. incubator with 5% CO2. Cell viability was tested using CellTiter-Glo® assay (Promega, Madison, Wis.) according to the manufacturer recommendations. Luminescence was determined using an EnVision® Multilabel plate reader 25 min after the addition of detection reagent. IC50 values were then calculated with Xlfit using a logistical 4-parameter fit model in GraphPad Prism (GraphPad Software, San Diego, Calif.) or in Genedata Screener® (Genedata, Basel, Switzerland).

[2] = target: Mcl-1/Bim interaction (recombinant human Mcl-1 residues 171-327) (Homo sapiens (Human), UniProt Q07820); experiment: Cell Free Mcl-1:Bim Affinity Assay (Mcl-1 HTRF); type: binding; conditions: TR-FRET, 0.1 nM Mcl-1(171-327), 0.05 nM biotin-Bim(51-76)
Procedure: Cell Free Mcl-1:Bim Affinity Assay (Mcl-1 HTRF)
The inhibition of the Mcl-1/Bim interaction was measured using a time-resolved fluorescence resonance energy transfer (TR-FRET) assay. The recombinant human Mcl-1 (C-terminally 6×His tagged Mcl-1 containing residues 171-327) was generated at Amgen Inc (Thousand Oaks, Calif.). A biotinylated peptide derived from human Bim (residues 51-76) was purchased from CPC Scientific (San Jose, Calif.). The TR-FRET assay was conducted in a 384-well white OptiPlate™ (PerkinElmer, Waltham, Mass.) in a total volume of 40 μL. The reaction mixture contained 0.1 nM Mcl-1(171-327), 0.05 nM biotin-Bim(51-76), 0.05 nM LANCES Eu-W1024 Anti-6×His (PerkinElmer), 0.072 nM Streptavidin-Xlent (Cisbio, Bedford, Mass.), and serially diluted test compounds in the binding buffer of 20 mM Hepes, pH 7.5, 150 mM NaCl, 0.016 mM Brij®35, and 1 mM dithiothreitol. Test compounds were pre-incubated with Mcl-1(171-327) and biotin-Bim (51-76) for 60 min before addition of the detection mixture (LANCE® Eu-W1024 Anti-6×His and Streptavidin-Xlent). The reaction plates were further incubated overnight and then were read on an Envision® multimode reader (PerkinElmer). Fluorescence signals were measured at 620 nm (40-nm bandwidth) and 665 nm (7.5-nm bandwidth) with a 60 μs delay after excitation at 320 nm (75-nm bandwidth). The signal ratio at 665/620 nm corresponded to the Mcl-1/Bim interaction and was used in all data analyses. The IC50 values of test compounds were determined from duplicate data by analyzing competition curves using a four-parameter sigmoidal model in GraphPad Prism (GraphPad Software, San Diego, Calif.) or in Genedata Screener® (Genedata, Basel, Switzerland).

Mcl-1/Bim interaction (recombinant human Mcl-1 residues 171-327), sequence (Q07820 171-327): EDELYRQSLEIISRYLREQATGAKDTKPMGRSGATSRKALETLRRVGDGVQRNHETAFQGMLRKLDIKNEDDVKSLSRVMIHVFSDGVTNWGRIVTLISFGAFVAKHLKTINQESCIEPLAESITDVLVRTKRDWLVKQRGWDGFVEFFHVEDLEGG

IC50 ([1]; 16 h)	IC50 [2]	IC50 ([1]; Homo sapiens, OPM-2, 16 h)	Structure (SMILES)
411 nM	0.172 nM	–	CC(=O)N1CCN(C[C@H]2CCC[C@H](C)[C@@H](C)S(=O)(=O)NC(=O)c3ccc4c(c3)N(C[C@@H]3CC[C@@H]23)C[C@@]2(CCCc3cc(Cl)ccc32)CO4)CC1 (stereo in doubt) [Example 33]
28300 nM	2.36 nM	–	C[C@@H]1[C@@H](C)CCC[C@H]([C@H](O)c2ccccc2)[C@@H]2CC[C@H]2CN2C[C@@]3(CCCc4cc(Cl)ccc43)COc3ccc(cc32)C(=O)NS1(=O)=O (single isomer, unassigned) [Example 78]
599 nM	0.268 nM	–	C[C@@H]1CS(=O)(=O)NC(=O)c2ccc3c(c2)N(C[C@@H]2CC[C@H]2[C@@H](CO)CC[C@@H]1C)C[C@@]1(CCCc2cc(Cl)ccc21)CO3 (single isomer, unassigned) [Example 43]
989 nM	0.624 nM	–	CC[C@@H](O)[C@H]1/C=C/C[C@H](C)[C@@H](C)S(=O)(=O)NC(=O)c2ccc3c(c2)N(C[C@@H]2CC[C@H]21)C[C@@]1(CCCc2cc(Cl)ccc21)CO3 (single isomer, unassigned) [Example 54]
–	0.375 nM	305 nM	CC(=O)N1CCN(C[C@H]2CCC[C@H](C)[C@@H](C)S(=O)(=O)NC(=O)c3ccc4c(c3)N(C[C@@H]3CC[C@@H]23)C[C@@]2(CCCc3cc(Cl)ccc32)CO4)CC1 (single isomer, unassigned) [Example 22]
–	1.6 nM	3510 nM	COC[C@H]1CCC[C@H](C)[C@@H](C)S(=O)(=O)NC(=O)c2ccc3c(c2)N(C[C@@H]2CC[C@@H]12)C[C@@]1(CCCc2cc(Cl)ccc21)CO3 (single isomer, unassigned) [Example 80]
1860 nM	0.843 nM	–	C[C@H]([C@H]1CCC[C@H](C)[C@@H](C)S(=O)(=O)NC(=O)c2ccc3c(c2)N(C[C@@H]2CC[C@H]21)C[C@@]1(CCCc2cc(Cl)ccc21)CO3)N1CCOCC1 (single isomer, unassigned) [Example 70]
1020 nM	0.843 nM	–	C[C@@H]1[C@@H](C)CCC[C@H](CN2CCOCC2)[C@@H]2CC[C@H]2CN2C[C@@]3(CCCc4cc(Cl)ccc43)COc3ccc(cc32)C(=O)NS1(=O)=O (stereo in doubt) [Example 55]
180 nM	0.181 nM	–	COCCN1CCN(C[C@H]2CCC[C@H](C)[C@@H](C)S(=O)(=O)NC(=O)c3ccc4c(c3)N(C[C@@H]3CC[C@@H]23)C[C@@]2(CCCc3cc(Cl)ccc32)CO4)CC1=O (single isomer, unassigned) [Example 7]
9890 nM	13.3 nM	–	C[C@@H]1[C@@H](C)CCC[C@@H]([C@@H](O)C(F)(F)F)[C@@H]2CC[C@H]2CN2C[C@@]3(CCCc4cc(Cl)ccc43)COc3ccc(cc32)C(=O)NS1(=O)=O (single isomer, unassigned) [Example 87]
1600 nM	7.29 nM	–	C[C@@H]1[C@@H](C)CCC[C@@H]([C@H](O)C(F)(F)F)[C@@H]2CC[C@H]2CN2C[C@@]3(CCCc4cc(Cl)ccc43)COc3ccc(cc32)C(=O)NS1(=O)=O (single isomer, unassigned) [Example 66]
17000 nM	7.41 nM	–	C[C@@H]1[C@@H](C)CCC[C@H](C)[C@@H]2CC[C@H]2CN2C[C@@]3(CCCc4cc(Cl)ccc43)COc3ccc(cc32)C(=O)NS1(=O)=O (single isomer, unassigned) [Example 73]
277 nM	0.185 nM	–	CC(=O)N1CCN2CCN(C[C@H]3CCC[C@H](C)[C@@H](C)S(=O)(=O)NC(=O)c4ccc5c(c4)N(C[C@@H]4CC[C@@H]34)C[C@@]3(CCCc4cc(Cl)ccc43)CO5)C[C@H]2C1 (single isomer, unassigned) [Example 15]
567 nM	0.284 nM	–	C[C@@H]1[C@@H](C)CCC[C@H](CS(C)(=O)=O)[C@@H]2CC[C@H]2CN2C[C@@]3(CCCc4cc(Cl)ccc43)COc3ccc(cc32)C(=O)NS1(=O)=O (single isomer, unassigned) [Example 41]
–	0.408 nM	593 nM	COCCN1CCCN(C[C@H]2CCC[C@H](C)[C@@H](C)S(=O)(=O)NC(=O)c3ccc4c(c3)N(C[C@@H]3CC[C@@H]23)C[C@@]2(CCCc3cc(Cl)ccc32)CO4)CC1=O (stereo in doubt) [Example 42]
5840 nM	3.43 nM	–	C[C@@H]1CS(=O)(=O)NC(=O)c2ccc3c(c2)N(C[C@@H]2CC[C@H]2[C@@H](CO)CC[C@@H]1C)C[C@@]1(CCCc2cc(Cl)ccc21)CO3 (single isomer, unassigned) [Example 84]
342 nM	0.336 nM	–	C[C@@H]1[C@@H](C)C/C=C/[C@H](CO)[C@@H]2CC[C@H]2CN2C[C@@]3(CCCc4cc(Cl)ccc43)COc3ccc(cc32)C(=O)NS1(=O)=O (single isomer, unassigned) [Example 26]
756 nM	1.61 nM	–	C[C@@H]1[C@@H](C)CCC[C@@H]([C@@H](O)C(F)(F)F)[C@@H]2CC[C@H]2CN2C[C@@]3(CCCc4cc(Cl)ccc43)COc3ccc(cc32)C(=O)NS1(=O)=O (single isomer, unassigned) [Example 47]
675 nM	0.338 nM	–	CC(=O)[C@@H]1CCC[C@H](C)[C@@H](C)S(=O)(=O)NC(=O)c2ccc3c(c2)N(C[C@@H]2CC[C@H]21)C[C@@]1(CCCc2cc(Cl)ccc21)CO3 (single isomer, unassigned) [Example 45]
–	0.388 nM	1440 nM	C[C@@H]1[C@@H](C)C/C=C/[C@H](CN2CCOCC2)[C@@H]2CC[C@H]2CN2C[C@@]3(CCCc4cc(Cl)ccc43)COc3ccc(cc32)C(=O)NS1(=O)=O (stereo in doubt) [Example 62]
1330 nM	0.552 nM	–	C[C@@H]1[C@@H](C)CCC[C@H](C=O)[C@@H]2CC[C@H]2CN2C[C@@]3(CCCc4cc(Cl)ccc43)COc3ccc(cc32)C(=O)NS1(=O)=O [Example 60]
724 nM	0.743 nM	–	C[C@@H]1[C@@H](C)CCC[C@H](CN2CCOCC2)[C@@H]2CC[C@H]2CN2C[C@@]3(CCCc4cc(Cl)ccc43)COc3ccc(cc32)C(=O)NS1(=O)=O (single isomer, unassigned) [Example 46]

Structure (SMILES)	IC50 ([1]; 16 h)	IC50 [2]	IC50 ([1]; Homo sapiens, OPM-2, 16 h)
C[C@@H]1[C@@H](C)CCC[C@H](CN2CCN3CCN(C)C[C@@H]3C2)[C@@H]2CC[C@H]2CN2C[C@@]3(CCCc4cc(Cl)ccc43)COc3ccc(cc32)C(=O)NS1(=O)=O (single isomer, unassigned) [Example 56]	1030 nM	0.52 nM	–
C[C@@H]1[C@@H](C)CCC[C@@H](CS(C)(=O)=O)[C@@H]2CC[C@H]2CN2C[C@@]3(CCCc4cc(Cl)ccc43)COc3ccc(cc32)C(=O)NS1(=O)=O (single isomer, unassigned) [Example 44]	617 nM	0.502 nM	–
C[C@@H]1[C@@H](C)CCC[C@H]([C@@H](C)O)[C@@H]2CC[C@H]2CN2C[C@@]3(CCCc4cc(Cl)ccc43)COc3ccc(cc32)C(=O)NS1(=O)=O (single isomer, unassigned) [Example 74]	2040 nM	3.67 nM	–
C[C@@H]1[C@@H](C)CCC[C@H](CO)[C@@H]2CC[C@H]2CN2C[C@@]3(CCCc4cc(Cl)ccc43)COc3ccc(cc32)C(=O)NS1(=O)=O (single isomer, unassigned) [Example 23]	305 nM	0.182 nM	–
C[C@@H]1[C@@H](C)CCC[C@H](CN2CCN3CCN(C)C[C@@H]3C2)[C@@H]2CC[C@H]2CN2C[C@@]3(CCCc4cc(Cl)ccc43)COc3ccc(cc32)C(=O)NS1(=O)=O (single isomer, unassigned) [Example 19]	303 nM	0.532 nM	–
